Molecular target: T1, Met kinase domain (GST fusion protein) (Homo sapiens, UniProt P08581)
T1 construct: Purified GST fusion protein containing the Met kinase domain
Experiment: Met transphosphorylation assay (ELISA, poly(glu-tyr) substrate);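 note: Cell-free ELISA with plate-bound poly(Glu:Tyr 4:1) phosphorylated by GST-fused Met kinase domain plus ATP and Mn2+, phosphotyrosine detected by anti-phosphotyrosine antibody with HRP and ABTS read-out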
Assay type: biochemical
Settings: plain numbers in column Met IC50 (μM) of Table 2; read-out: Met IC50

T1 sequence (P08581 1078-1345 limits assumed): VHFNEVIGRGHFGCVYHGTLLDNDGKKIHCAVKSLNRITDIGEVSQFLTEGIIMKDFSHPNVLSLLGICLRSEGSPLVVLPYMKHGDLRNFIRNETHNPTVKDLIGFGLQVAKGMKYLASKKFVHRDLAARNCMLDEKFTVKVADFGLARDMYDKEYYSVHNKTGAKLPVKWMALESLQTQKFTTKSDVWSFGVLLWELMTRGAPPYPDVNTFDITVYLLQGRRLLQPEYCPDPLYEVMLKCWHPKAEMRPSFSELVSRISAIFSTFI

IC50	Compound
0.073 µM	CC(Oc1cc(-c2ccc(C(=O)NCCN3CCOCC3)cc2)cnc1N)c1c(Cl)cccc1Cl (centres unmarked) [Example I-401, 4-{6-Amino-5-[1-(2,6-dichloro-phenyl)-ethoxy]-pyridin-3-yl}-N-(2-morpholin-4-yl-ethyl)-benzamide]
0.062 µM	CC(Oc1cc(-c2ccc(C(=O)NC3CCN(C)CC3)cc2)cnc1N)c1c(Cl)cccc1Cl (centres unmarked) [Example I-403, 4-{6-Amino-5-[1-(2,6-dichloro-phenyl)-ethoxy]-pyridin-3-yl}-N-(1-methyl-piperidin-4-yl)-benzamide]
0.052 µM	CC(Oc1cc(-c2ccc(C(=O)N3C[C@@H](C)N[C@@H](C)C3)cc2)cnc1N)c1c(Cl)cccc1Cl (stereo partly drawn) [Example I-404, (4-{6-Amino-5-[1-(2,6-dichloro-phenyl)-ethoxy]-pyridin-3-yl}-phenyl)-((3R,5S)-3,5-dimethyl-piperazin-1-yl)-methanone]
0.062 µM	CC(=O)N1CCN(CCNC(=O)c2ccc(-c3cnc(N)c(OC(C)c4c(Cl)cccc4Cl)c3)cc2)CC1 (centres unmarked) [Example I-405, N-[2-(4-Acetyl-piperazin-1-yl)-ethyl]-4-{6-amino-5-[1-(2,6-dichloro-phenyl)-ethoxy]-pyridin-3-yl}-benzamide]
0.061 µM	CC(Oc1cc(-c2ccc(C(=O)NCCCN3CCCC3)cc2)cnc1N)c1c(Cl)cccc1Cl (centres unmarked) [Example I-406, 4-{6-Amino-5-[1-(2,6-dichloro-phenyl)-ethoxy]-pyridin-3-yl}-N-(3-pyrrolidin-1-yl-propyl)-benzamide]
0.055 µM	CC(Oc1cc(-c2ccc(C(=O)N3CCC(N4CCCC4)CC3)cc2)cnc1N)c1c(Cl)cccc1Cl (centres unmarked) [Example I-410, (4-{6-Amino-5-[1-(2,6-dichloro-phenyl)-ethoxy]-pyridin-3-yl}-phenyl)-(4-pyrrolidin-1-yl-piperidin-1-yl)-methanone]
0.053 µM	CC(Oc1cc(-c2ccc(C(=O)N3CCN(C)CC3)cc2)cnc1N)c1c(Cl)cccc1Cl (centres unmarked) [Example I-411, (4-{6-Amino-5-[1-(2,6-dichloro-phenyl)-ethoxy]-pyridin-3-yl}-phenyl)-(4-methyl-piperazin-1-yl)-methanone]
0.067 µM	CC(Oc1cc(C#CCNC(=O)N2CCC[C@H]2CN2CCCC2)cnc1N)c1c(Cl)ccc(F)c1Cl (stereo partly drawn) [Example I-412, (S)-2-Pyrrolidin-1-ylmethyl-pyrrolidine-1-carboxylic acid (3-{6-amino-5-[1-(2,6-dichloro-3-fluoro-phenyl)-ethoxy]-pyridin-3-yl}-prop-2-ynyl)-amide]
0.056 µM	CC(Oc1cc(C#CCNC(=O)N2CCN(C)CC2)cnc1N)c1c(Cl)ccc(F)c1Cl (centres unmarked) [Example I-413, 4-Methyl-piperazine-1-carboxylic acid (3-{6-amino-5-[1-(2,6-dichloro-3-fluoro-phenyl)-ethoxy]-pyridin-3-yl}-prop-2-ynyl)-amide]
0.058 µM	CC(Oc1cc(C#CCNC(=O)N2CCC(N3CCCC3)CC2)cnc1N)c1c(Cl)ccc(F)c1Cl (centres unmarked) [Example I-414, 4-Pyrrolidin-1-yl-piperidine-1-carboxylic acid (3-{6-amino-5-[1-(2,6-dichloro-3-fluoro-phenyl)-ethoxy]-pyridin-3-yl}-prop-2-ynyl)-amide]
0.063 µM	CC(Oc1cc(C#CCNC(=O)N2C[C@@H](C)N[C@@H](C)C2)cnc1N)c1c(Cl)ccc(F)c1Cl (stereo partly drawn) [Example I-415, (3R,5S)-3,5-Dimethyl-piperazine-1-carboxylic acid (3-{6-amino-5-[1-(2,6-dichloro-3-fluoro-phenyl)-ethoxy]-pyridin-3-yl}-prop-2-ynyl)-amide]
0.051 µM	CC(Oc1cc(C#CCNC(=O)NC2CCN(C)CC2)cnc1N)c1c(Cl)ccc(F)c1Cl (centres unmarked) [Example I-416, 1-(3-{6-Amino-5-[1-(2,6-dichloro-3-fluoro-phenyl)-ethoxy]-pyridin-3-yl}-prop-2-ynyl)-3-(1-methyl-piperidin-4-yl)-urea]
0.062 µM	CC(Oc1cc(C#CCNC(=O)NCCCN2CCCC2)cnc1N)c1c(Cl)ccc(F)c1Cl (centres unmarked) [Example I-417, 1-(3-{6-Amino-5-[1-(2,6-dichloro-3-fluoro-phenyl)-ethoxy]-pyridin-3-yl}-prop-2-ynyl)-3-(3-pyrrolidin-1-yl-propyl)-urea]
0.052 µM	CC(Oc1cc(C#CCNC(=O)NCCN2CCCC2)cnc1N)c1c(Cl)ccc(F)c1Cl (centres unmarked) [Example I-418, 1-(3-{6-Amino-5-[1-(2,6-dichloro-3-fluoro-phenyl)-ethoxy]-pyridin-3-yl}-prop-2-ynyl)-3-(2-pyrrolidin-1-yl-ethyl)-urea]
0.055 µM	CC(Oc1cc(C#CCNC(=O)NCCN2CCOCC2)cnc1N)c1c(Cl)ccc(F)c1Cl (centres unmarked) [Example I-419]
0.071 µM	CC(Oc1cc(C#CCNC(=O)N2CCC[C@@H]2CN2CCCC2)cnc1N)c1c(Cl)ccc(F)c1Cl (some centres unmarked) [Example I-421]
0.071 µM	CC(Oc1cc(C#CCN(C)C)cnc1N)c1c(Cl)ccc(F)c1Cl (centres unmarked) [Example I-422, 3-[1-(2,6-Dichloro-3-fluoro-phenyl)-ethoxy]-5-(3-dimethylamino-prop-1-ynyl)-pyridin-2-ylamine]
0.062 µM	CC(Oc1cc(C#CCNC(N)=O)cnc1N)c1c(Cl)ccc(F)c1Cl (centres unmarked) [Example I-423, (3-{6-Amino-5-[1-(2,6-dichloro-3-fluoro-phenyl)-pnlethoxy]-pyridin-3-yl}-prop-2-ynyl)-area]

IC50	Compound
0.016 µM	CC(Oc1cc(C#CCNC(=O)CN2CCCCC2)cnc1N)c1c(Cl)ccc(F)c1Cl (centres unmarked) [Example I-424, N-(3-{6-Amino-5-[1-(2,6-dichloro-3-fluoro-phenyl)-ethoxy]-pyridin-3-yl}-prop-2-ynyl)-2-piperidin-1- -yl-acetamide]
0.027 µM	CC(Oc1cc(C#CCNC(=O)CN2CCOCC2)cnc1N)c1c(Cl)ccc(F)c1Cl (centres unmarked) [Example I-425, N-(3-{6-Amino-5-[1-(2,6-dichloro-3-fluoro-phenyl)-ethoxy]-pyridin-3-yl}-prop-2-ynyl)-2-morpholin-4-yl-acetamide]
0.0091 µM	CC(Oc1cc(C#CCNC(=O)CN2CCCC2)cnc1N)c1c(Cl)ccc(F)c1Cl (centres unmarked) [Example I-426, N-(3-{8-Amino-5-[1-(2,6-dichloro-3-fluoro-phenyl)-ethoxy]-pyridin-3-yl}-prop-2-ynyl)-2-pyrrolidin-1-yl-acetamide]
0.011 µM	CC(Oc1cc(C#CCNC(=O)CN2CC[C@@H](O)C2)cnc1N)c1c(Cl)ccc(F)c1Cl (stereo partly drawn) [Example I-427, N-(3-{6-Amino-5-[1-(2,6-dichloro-3-fluoro-phenyl)-ethoxy]-pyridin-3-yl}-prop-2-ynyl)-2-((R)-3-hydroxy-pyrrolidin-1-yl)-acetamide]
0.012 µM	CC(Oc1cc(C#CCNC(=O)CN2CCC(O)CC2)cnc1N)c1c(Cl)ccc(F)c1Cl (centres unmarked) [Example I-428, N-(3-{6-Amino-5-[1-(2,6-dichloro-3-fluoro-phenyl)-ethoxy]-pyridin-3-yl}-prop-2-ynyl)-2-(4-hydroxy-piperidin-1-yl)-acetamide]
0.022 µM	CC(Oc1cc(C#CCNC(=O)CN(C)C)cnc1N)c1c(Cl)ccc(F)c1Cl (centres unmarked) [Example I-429, N-(3-{6-Amino-5-[1-(2,6-dichloro-3-fluoro-phenyl)-ethoxy]-pyridin-3-yl}-prop-2-ynyl)-2-dimethylamino-acetamide]
0.013 µM	CCN(CC)CC(=O)NCC#Cc1cnc(N)c(OC(C)c2c(Cl)ccc(F)c2Cl)c1 (centres unmarked) [Example I-430, N-(3-{6-Amino-5-[1-(2,6-dichloro-3-fluoro-phenyl)-ethoxy]-pyridin-3-yl}-prop-2-ynyl)-2-diethylamino-acetamide]
0.027 µM	CC(=O)N1CCN(CC(=O)NCC#Cc2cnc(N)c(OC(C)c3c(Cl)ccc(F)c3Cl)c2)CC1 (centres unmarked) [Example I-431, 2-(4-Acetyl-piperazin-1-yl)-N-(3-{6-amino-5-[1-(2,6-dichloro-3-fluoro-phenyl)-ethoxy]pyridin-3-yl}-prop-2-ynyl)-acetamide]
> 20 µM	Nc1ncc(-c2ccccn2)cc1OCc1ccccc1 [Example I-488, 5′-Benzyloxy-[2,3′]bipyridinyl-6′-ylamine]
> 20 µM	Nc1ncc(-c2cncnc2)cc1OCc1ccccc1 [Example I-490, 3-Benzyloxy-5-pyrimidin-5-yl-pyridin-2-ylamine]
> 20 µM	Nc1ccc(-c2cnc(N)c(OCc3ccccc3)c2)cn1 [Example I-491, 5-Benzyloxy-[3,3′]bipyridinyl-6,6′-diamine]
8.24 µM	Nc1ncc(-c2ccccn2)cc1OCc1ccccc1Cl [Example I-492, 5′-(2-Chloro-benzyloxy)-[2,3′]bipyridinyl-6′-ylamine]
4.6 µM	Nc1ncc(-c2cccnc2)cc1OCc1ccccc1Cl [Example I-493]
19.3 µM	Nc1ncc(-c2cncnc2)cc1OCc1ccccc1Cl [Example I-494, 3-(2-Chloro-benzyloxy)-5-pyrimidin-5-yl-pyridin-2-ylamine]
4.31 µM	Nc1ccc(-c2cnc(N)c(OCc3ccccc3Cl)c2)cn1 [Example I-495, 5-(2-Chloro-benzyloxy)-[3,3′]bipyridinyl-6,6′-diamine]
14 µM	Nc1ncc(-c2ccccn2)cc1OCc1ccc(Cl)cc1 [Example I-496, 5′-(4-Chloro-benzyloxy)-[2,3′]bipyridinyl-6′-ylamine]
14.1 µM	Nc1ncc(-c2cccnc2)cc1OCc1ccc(Cl)cc1 [Example I-497, 5-(4-Chloro-benzyloxy)-[3,3′]bipyridinyl-6-ylamine]

Compound	IC50
CC(Oc1cc(-c2ccc(C(=O)N3CC[C@H](N)C3)cc2)cnc1N)c1c(Cl)cccc1Cl (stereo partly drawn) [Example I-407, (4-{6-Amino-5-[1-(2,6-dichloro-phenyl)-ethoxy]-pyridin-3-yl}-phenyl)-((S)-3-aminopyrrolidin-1-yl)-methanone]	0.05 µM
CC(Oc1cc(-c2ccc(C(=O)N3CC[C@@H](N)C3)cc2)cnc1N)c1c(Cl)cccc1Cl (stereo partly drawn) [Example I-408, (4-{6-Amino-5-[1-(2,6-dichloro-phenyl)-ethoxy]-pyridin-3-yl}-phenyl)-((R)-3-amino-pyrrolidin-1-yl)-methanone]	0.049 µM
CC(Oc1cc(C#CCNC(=O)NCCCN2CCOCC2)cnc1N)c1c(Cl)ccc(F)c1Cl (centres unmarked) [Example I-420, 1-(3-{6-Amino-5-[1-(2,6-dichloro-3-fluoro-phenyl)-ethoxy]-pyridin-3-yl}-prop-2-ynyl)-3-(3-morpholin-4-yl-propyl)-urea]	0.064 µM
